Measured values as given in ChEMBL document CHEMBL1781873, “Synthesis and antibacterial property of pyrrolopyrano quinolinones and pyrroloquinolines” (2011).
Values after ≈ are worked out from the molar mass of the structure shown. Active and inactive are the calls of the source. The rule behind the calls is not given here.

Columns and labels:
Klebsiella pneumoniae [1] = test: Antibacterial activity against Klebsiella pneumoniae at 25 ug after 24 hrs by disc diffusion assay; format: functional; conditions: read-out: IZ
Staphylococcus aureus [2] = test: Antibacterial activity against Staphylococcus aureus at 10 ug after 24 hrs by disc diffusion assay; format: functional; conditions: read-out: IZ
Escherichia coli [3] = test: Antibacterial activity against Escherichia coli after 18 to 20 hrs by broth micro dilution assay; format: functional
Pseudomonas aeruginosa [4] = test: Antibacterial activity against Pseudomonas aeruginosa at 5 ug after 24 hrs by disc diffusion assay; format: functional; conditions: read-out: IZ
Pseudomonas aeruginosa [5] = test: Antibacterial activity against Pseudomonas aeruginosa at 15 ug after 24 hrs by disc diffusion assay; format: functional; conditions: read-out: IZ
Bacillus subtilis [6] = test: Antibacterial activity against Bacillus subtilis at 15 ug after 24 hrs by disc diffusion assay; format: functional; conditions: read-out: IZ
Escherichia coli [7] = test: Antibacterial activity against Escherichia coli at 15 ug after 24 hrs by disc diffusion assay; format: functional; conditions: read-out: IZ
Bacillus subtilis [8] = test: Antibacterial activity against Bacillus subtilis at 20 ug after 24 hrs by disc diffusion assay; format: functional; conditions: read-out: IZ
Klebsiella pneumoniae [9] = test: Antibacterial activity against Klebsiella pneumoniae at 5 ug after 24 hrs by disc diffusion assay; format: functional; conditions: read-out: IZ
Pseudomonas aeruginosa [10] = test: Antibacterial activity against Pseudomonas aeruginosa at 25 ug after 24 hrs by disc diffusion assay; format: functional; conditions: read-out: IZ
Klebsiella pneumoniae [11] = test: Antibacterial activity against Klebsiella pneumoniae at 15 ug after 24 hrs by disc diffusion assay; format: functional; conditions: read-out: IZ
Salmonella typhi [12] = test: Antibacterial activity against Salmonella typhi after 18 to 20 hrs by broth micro dilution assay; format: functional, Salmonella enterica subsp. enterica serovar Typhi; conditions: Salmonella enterica
Escherichia coli [13] = test: Antibacterial activity against Escherichia coli at 10 ug after 24 hrs by disc diffusion assay; format: functional; conditions: read-out: IZ
Escherichia coli [14] = test: Inhibition of Escherichia coli DNA gyrase -mediated DNA relaxation using pBR322 DNA as substrate at […] after 1 hrs by agarose gel electrophoresis
Bacillus subtilis [15] = test: Antibacterial activity against Bacillus subtilis at 25 ug after 24 hrs by disc diffusion assay; format: functional; conditions: read-out: IZ
Salmonella typhi [16] = test: Antibacterial activity against Salmonella typhi at 20 ug after 24 hrs by disc diffusion assay; format: functional, Salmonella enterica subsp. enterica serovar Typhi; conditions: Salmonella enterica, read-out: IZ
Staphylococcus aureus [17] = test: Antibacterial activity against Staphylococcus aureus at 20 ug after 24 hrs by disc diffusion assay; format: functional; conditions: read-out: IZ
Salmonella typhi [18] = test: Antibacterial activity against Salmonella typhi at 5 ug after 24 hrs by disc diffusion assay; format: functional, Salmonella enterica subsp. enterica serovar Typhi; conditions: Salmonella enterica, read-out: IZ
Salmonella typhi [19] = test: Antibacterial activity against Salmonella typhi at 25 ug after 24 hrs by disc diffusion assay; format: functional, Salmonella enterica subsp. enterica serovar Typhi; conditions: Salmonella enterica, read-out: IZ
Salmonella typhi [20] = test: Antibacterial activity against Salmonella typhi at 10 ug after 24 hrs by disc diffusion assay; format: functional, Salmonella enterica subsp. enterica serovar Typhi; conditions: Salmonella enterica, read-out: IZ
Staphylococcus aureus [21] = test: Antibacterial activity against Staphylococcus aureus at 25 ug after 24 hrs by disc diffusion assay; format: functional; conditions: read-out: IZ
Salmonella typhi [22] = test: Antibacterial activity against Salmonella typhi at 15 ug after 24 hrs by disc diffusion assay; format: functional, Salmonella enterica subsp. enterica serovar Typhi; conditions: Salmonella enterica, read-out: IZ
Escherichia coli [23] = test: Antibacterial activity against Escherichia coli at 20 ug after 24 hrs by disc diffusion assay; format: functional; conditions: read-out: IZ
Staphylococcus aureus [24] = test: Antibacterial activity against Staphylococcus aureus at 15 ug after 24 hrs by disc diffusion assay; format: functional; conditions: read-out: IZ
Pseudomonas aeruginosa [25] = test: Antibacterial activity against Pseudomonas aeruginosa at 10 ug after 24 hrs by disc diffusion assay; format: functional; conditions: read-out: IZ
Escherichia coli [26] = test: Antibacterial activity against Escherichia coli at 5 ug after 24 hrs by disc diffusion assay; format: functional; conditions: read-out: IZ
Klebsiella pneumoniae [27] = test: Antibacterial activity against Klebsiella pneumoniae at 20 ug after 24 hrs by disc diffusion assay; format: functional; conditions: read-out: IZ
Pseudomonas aeruginosa [28] = test: Antibacterial activity against Pseudomonas aeruginosa after 18 to 20 hrs by broth micro dilution assay; format: functional
Klebsiella pneumoniae [29] = test: Antibacterial activity against Klebsiella pneumoniae after 18 to 20 hrs by broth micro dilution assay; format: functional
Staphylococcus aureus [30] = test: Antibacterial activity against Staphylococcus aureus after 18 to 20 hrs by broth micro dilution assay; format: functional
Pseudomonas aeruginosa [31] = test: Antibacterial activity against Pseudomonas aeruginosa at 20 ug after 24 hrs by disc diffusion assay; format: functional; conditions: read-out: IZ
Escherichia coli [32] = test: Inhibition of Escherichia coli DNA gyrase assessed as inhibition of DNA supercoiling activity using pBR322 DNA as substrate at […] after 3 hrs by agarose gel electrophoresis
Bacillus subtilis [33] = test: Antibacterial activity against Bacillus subtilis after 18 to 20 hrs by broth micro dilution assay; format: functional
Klebsiella pneumoniae [34] = test: Antibacterial activity against Klebsiella pneumoniae at 10 ug after 24 hrs by disc diffusion assay; format: functional; conditions: read-out: IZ
Staphylococcus aureus [35] = test: Antibacterial activity against Staphylococcus aureus at 5 ug after 24 hrs by disc diffusion assay; format: functional; conditions: read-out: IZ
Bacillus subtilis [36] = test: Antibacterial activity against Bacillus subtilis at 10 ug after 24 hrs by disc diffusion assay; format: functional; conditions: read-out: IZ
Escherichia coli [37] = test: Antibacterial activity against Escherichia coli at 25 ug after 24 hrs by disc diffusion assay; format: functional; conditions: read-out: IZ
Escherichia coli [38] = test: Inhibition of DNA gyrase mRNA expression in Escherichia coli measured up to 24 hrs by RT-PCR; format: functional, organism-based

Molecule `CCC1[C@H]2c3c(n(C)c4ccccc4c3=O)OC(C)(C)[C@@H]2CN1OS(=O)(=O)c1ccc(C)cc1` (mixture of isomers) has a zone of inhibition at 25 µg/disc (Klebsiella pneumoniae [1]) of 26 mm, a zone of inhibition at 10 µg/disc (Staphylococcus aureus [2]) of 24 mm and an MIC50 (Escherichia coli [3]) of 0.5 µg/mL. The MIC90 (Escherichia coli [3]) was 0.5 µg/mL, the zone of inhibition at 5 µg/disc (Pseudomonas aeruginosa [4]) was 24 mm and the zone of inhibition at 15 µg/disc (Pseudomonas aeruginosa [5]) was 28 mm. It also gave a zone of inhibition at 15 µg/disc (Bacillus subtilis [6]) of 9 mm, a zone of inhibition at 15 µg/disc (Escherichia coli [7]) of 16 mm and a zone of inhibition at 20 µg/disc (Bacillus subtilis [8]) of 10 mm. It also gave a zone of inhibition at 5 µg/disc (Klebsiella pneumoniae [9]) of 10 mm, a zone of inhibition at 25 µg/disc (Pseudomonas aeruginosa [10]) of 36 mm and a zone of inhibition at 15 µg/disc (Klebsiella pneumoniae [11]) of 16 mm. It also gave an MIC50 (Salmonella typhi [12]) of 0.5 µg/mL, an MIC90 (Salmonella typhi [12]) of 0.5 µg/mL and a zone of inhibition at 10 µg/disc (Escherichia coli [13]) of 14 mm. The inhibition (Escherichia coli [14]) was “Active”, the zone of inhibition at 25 µg/disc (Bacillus subtilis [15]) was 11 mm and the zone of inhibition at 20 µg/disc (Salmonella typhi [16]) was 22 mm. It also gave a zone of inhibition at 20 µg/disc (Staphylococcus aureus [17]) of 30 mm, a zone of inhibition at 5 µg/disc (Salmonella typhi [18]) of 10 mm and a zone of inhibition at 25 µg/disc (Salmonella typhi [19]) of 24 mm. For the same molecule, the zone of inhibition at 10 µg/disc (Salmonella typhi [20]) was 16 mm, the zone of inhibition at 25 µg/disc (Staphylococcus aureus [21]) was 36 mm and the zone of inhibition at 15 µg/disc (Salmonella typhi [22]) was 18 mm. For the same molecule, the zone of inhibition at 20 µg/disc (Escherichia coli [23]) was 22 mm, the zone of inhibition at 15 µg/disc (Staphylococcus aureus [24]) was 26 mm and the zone of inhibition at 10 µg/disc (Pseudomonas aeruginosa [25]) was 26 mm. For the same molecule, the zone of inhibition at 5 µg/disc (Escherichia coli [26]) was 12 mm, the zone of inhibition at 20 µg/disc (Klebsiella pneumoniae [27]) was 24 mm and the MIC50 (Pseudomonas aeruginosa [28]) was 0.5 µg/mL. It also gave an MIC90 (Pseudomonas aeruginosa [28]) of 0.5 µg/mL, an MIC50 (Klebsiella pneumoniae [29]) of 0.5 µg/mL and an MIC90 (Klebsiella pneumoniae [29]) of 0.5 µg/mL. It also gave an MIC50 (Staphylococcus aureus [30]) of 0.5 µg/mL, an MIC90 (Staphylococcus aureus [30]) of 0.5 µg/mL and a zone of inhibition at 20 µg/disc (Pseudomonas aeruginosa [31]) of 34 mm. The “DNA gyrase inhibition (active/inactive)” value (Escherichia coli [32]) was “Active”, the MIC50 (Bacillus subtilis [33]) was 0.5 µg/mL and the MIC90 (Bacillus subtilis [33]) was 0.5 µg/mL. It also gave a zone of inhibition at 10 µg/disc (Klebsiella pneumoniae [34]) of 14 mm, a zone of inhibition at 5 µg/disc (Staphylococcus aureus [35]) of 20 mm and a zone of inhibition at 10 µg/disc (Bacillus subtilis [36]) of 8 mm. For the same molecule, the zone of inhibition at 25 µg/disc (Escherichia coli [37]) was 23 mm and the “inhibition of gyrase mRNA expression (active/not active)” value (Escherichia coli [38]) was “inactive”.

In the case of `CCC1[C@@H]2Nc3ccc(Cl)cc3C(c3ccccc3)[C@H]2CN1OS(=O)(=O)c1ccc(C)cc1` (stereo partly drawn), the zone of inhibition at 25 µg/disc (Klebsiella pneumoniae [1]) is reported as 36 mm, the zone of inhibition at 10 µg/disc (Staphylococcus aureus [2]) is reported as 12 mm and the MIC50 (Escherichia coli [3]) is reported as 128 µg/mL (≈ 265 µM). It also gave an MIC90 (Escherichia coli [3]) of 128 µg/mL (≈ 265 µM), a zone of inhibition at 5 µg/disc (Pseudomonas aeruginosa [4]) of 10 mm and a zone of inhibition at 15 µg/disc (Pseudomonas aeruginosa [5]) of 17 mm. It also gave a zone of inhibition at 15 µg/disc (Bacillus subtilis [6]) of 9 mm, a zone of inhibition at 15 µg/disc (Escherichia coli [7]) of 18 mm and a zone of inhibition at 20 µg/disc (Bacillus subtilis [8]) of 10 mm. It also gave a zone of inhibition at 5 µg/disc (Klebsiella pneumoniae [9]) of 20 mm, a zone of inhibition at 25 µg/disc (Pseudomonas aeruginosa [10]) of 24 mm and a zone of inhibition at 15 µg/disc (Klebsiella pneumoniae [11]) of 30 mm. It also gave an MIC50 (Salmonella typhi [12]) of 128 µg/mL (≈ 265 µM), an MIC90 (Salmonella typhi [12]) of 128 µg/mL (≈ 265 µM) and a zone of inhibition at 10 µg/disc (Escherichia coli [13]) of 16 mm. For the same molecule, the inhibition (Escherichia coli [14]) was “Active”, the zone of inhibition at 25 µg/disc (Bacillus subtilis [15]) was 12 mm and the zone of inhibition at 20 µg/disc (Salmonella typhi [16]) was 20 mm. For the same molecule, the zone of inhibition at 20 µg/disc (Staphylococcus aureus [17]) was 14 mm, the zone of inhibition at 5 µg/disc (Salmonella typhi [18]) was 10 mm and the zone of inhibition at 25 µg/disc (Salmonella typhi [19]) was 22 mm. The zone of inhibition at 10 µg/disc (Salmonella typhi [20]) was 16 mm, the zone of inhibition at 25 µg/disc (Staphylococcus aureus [21]) was 17 mm and the zone of inhibition at 15 µg/disc (Salmonella typhi [22]) was 18 mm. The zone of inhibition at 20 µg/disc (Escherichia coli [23]) was 20 mm, the zone of inhibition at 15 µg/disc (Staphylococcus aureus [24]) was 13 mm and the zone of inhibition at 10 µg/disc (Pseudomonas aeruginosa [25]) was 16 mm. The zone of inhibition at 5 µg/disc (Escherichia coli [26]) was 10 mm, the zone of inhibition at 20 µg/disc (Klebsiella pneumoniae [27]) was 34 mm and the MIC50 (Pseudomonas aeruginosa [28]) was 128 µg/mL (≈ 265 µM). The MIC90 (Pseudomonas aeruginosa [28]) was 128 µg/mL (≈ 265 µM), the MIC50 (Klebsiella pneumoniae [29]) was 128 µg/mL (≈ 265 µM) and the MIC90 (Klebsiella pneumoniae [29]) was 128 µg/mL (≈ 265 µM). The MIC50 (Staphylococcus aureus [30]) was 128 µg/mL (≈ 265 µM), the MIC90 (Staphylococcus aureus [30]) was 128 µg/mL (≈ 265 µM) and the zone of inhibition at 20 µg/disc (Pseudomonas aeruginosa [31]) was 22 mm. The “DNA gyrase inhibition (active/inactive)” value (Escherichia coli [32]) was “Active”, the MIC50 (Bacillus subtilis [33]) was 128 µg/mL (≈ 265 µM) and the MIC90 (Bacillus subtilis [33]) was 128 µg/mL (≈ 265 µM). For the same molecule, the zone of inhibition at 10 µg/disc (Klebsiella pneumoniae [34]) was 26 mm, the zone of inhibition at 5 µg/disc (Staphylococcus aureus [35]) was 9 mm and the zone of inhibition at 10 µg/disc (Bacillus subtilis [36]) was 7 mm. For the same molecule, the zone of inhibition at 25 µg/disc (Escherichia coli [37]) was 23 mm and the “inhibition of gyrase mRNA expression (active/not active)” value (Escherichia coli [38]) was “Active”.
